Measurements reported in patent publication US20110008471A1, “SYNERGISTIC ANTIPARASITIC COMPOSITIONS AND SCREENING METHODS” (TyraTech, Inc., priority 2007, published 2011).

Assays:
Tyramine receptor (TyrR) [1] = target: T1, Tyramine receptor (TyrR) (Drosophila melanogaster, UniProt P22270); test: Intracellular cAMP level in cells expressing TyrR; type: cell-based
T1 construct: expressed in transfected cells; host or cells: model cells in culture
T1 sequence (P22270 27-601): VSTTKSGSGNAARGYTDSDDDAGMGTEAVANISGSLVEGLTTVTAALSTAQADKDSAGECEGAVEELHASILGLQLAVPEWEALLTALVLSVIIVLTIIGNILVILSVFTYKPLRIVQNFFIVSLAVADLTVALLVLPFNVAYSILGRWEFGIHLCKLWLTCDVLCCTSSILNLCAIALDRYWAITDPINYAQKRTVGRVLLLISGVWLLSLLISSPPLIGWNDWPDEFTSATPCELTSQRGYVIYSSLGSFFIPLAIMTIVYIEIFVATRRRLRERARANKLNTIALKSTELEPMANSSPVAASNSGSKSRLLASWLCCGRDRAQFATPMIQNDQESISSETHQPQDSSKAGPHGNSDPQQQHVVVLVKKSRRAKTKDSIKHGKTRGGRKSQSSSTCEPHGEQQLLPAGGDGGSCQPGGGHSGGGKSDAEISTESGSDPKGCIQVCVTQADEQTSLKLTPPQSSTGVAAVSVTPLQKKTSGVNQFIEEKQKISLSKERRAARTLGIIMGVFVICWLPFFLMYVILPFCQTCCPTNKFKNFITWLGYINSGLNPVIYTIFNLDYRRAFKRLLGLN
Description: (§1) In the present Example, the genes encoding TyrR were incorporated into model cells in culture that mimic receptors in insects. The screening process uses the cultured cells in combination with [Ca^2+]i and [cAMP]i measuring assays to quantitatively determine effectiveness of test compound to treat parasitic infections. The screening process allows for identification of compounds that produce highly efficacious anti-parasitic compositions.
(§2) The assay steps are as follows. A cell expressing a tyramine receptor is contacted with a test compound and the receptor binding affinity of the test compound is measured. Cells which can be used include, for example, HEK293 cells, COS cells, Drosophila Schneider or S2 cells, SF9, SF21, T.ni cells, or the like. cAMP and/or Ca^2+ levels within the cell are also monitored and any changes from contacting the test compound with the cell are noted for each compound tested. […] A composition for use in treating a parasitic formulation can then be selected that includes a plurality of the identified compounds. In particular, the composition can comprise at least one compound identified as having a high receptor binding affinity for the tyramine receptor as well as an ability to effect change in cAMP and/or Ca^2+ levels within the cell and at least one additional compound identified as having a low receptor binding affinity for the tyramine receptor as well as an ability to effect change in cAMP and/or Ca^2+ levels within the cell.

Tyramine receptor (TyrR) [2] = target: T1, Tyramine receptor (TyrR); test: Intracellular Ca2+ level in cells expressing TyrR; type: cell-based
Tyramine receptor (TyrR) [3] = target: T1, Tyramine receptor (TyrR); test: Tyramine receptor binding affinity in cells expressing TyrR
Method: In some embodiments, a method of selecting a composition for use in treating a parasitic infection includes the following. A cell expressing a tyramine receptor is provided and is contacted with test compounds. The receptor binding affinity of the compounds is measured. At least one parameter selected from the following parameters is measured: intracellular cAMP level, and intracellular Ca^2+ level. A first compound for the composition is identified, which is capable of altering at least one of the parameters, and which has a high receptor binding affinity for the tyramine receptor; and a second compound for the composition is identified, which is capable of altering at least one of the parameters, and which has a low receptor binding affinity for the tyramine receptor. A composition is selected that includes the first and second compounds.
As used herein, the term “receptor binding affinity” refers to an interaction between a composition or component, e.g., compound, and a receptor binding site. The interaction between a composition or component, and the receptor binding site, can be identified as specific or non-specific. In some embodiments, the specificity of an interaction between a composition or component, and a TyrR binding site, can be determined in the following manner. A wild type fly (Drosophila melanogaster) and a mutant fly are provided, where the mutant fly lacks a TyrR. The wild type and mutant flies are exposed to a composition or component of interest. […] If the exposure negatively affects the wild type fly and the mutant fly, then the treatment with the composition or component of interest can be said to be non-specific for the TyrR.
A “high receptor binding affinity” can be a specific interaction between a composition or component, and the receptor binding site.
A “low receptor binding affinity” can be a non-specific interaction between a composition or component, and the receptor binding site. […] In some embodiments, a low receptor binding affinity is found when the effective concentration at which tyramine binding is inhibited by 50% (EC50) is greater than about 500 μM, 625 μM, 750 μM, 875 μM, 1000 μM, 1125 μM, or 1250 μM.
A receptor gene encoding the Tyramine receptor (TyrR) has been isolated from the American cockroach, fruit fly, mosquito, and other organisms. The present subject matter provides methods of utilizing the TyrR protein expressed in cells to screen for compounds useful for treating parasitic infections.
as §1, §2

H. nana = test: Anti-parasitic effect against H. nana in vivo in infected Swiss albino mice (egg count, cure rate); parameters: species or system Hymenolepsis nana; settings: for Egg Count (X ± SD), Pre Treatment (Base Line Data): infected mice, before 400 mg/kg oral daily for 5 days;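 on all read-outs here: fecal egg counts per mouse in groups of 15, controls got soybean oil vehicle alone, cure judged 3 days after final dose by egg reduction and no adult intestinal worms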
[4] = 400 mg/kg oral daily for 5 days
[5] = 3 Days after last dose, 400 mg/kg oral daily for 5 days
[6] = 100 mg/kg oral daily for 5 days
[7] = Tested dose 100 mg/kg b.w. orally daily for 5 successive days

Compound | Affects Intracellular cAMP (Yes or No) (Tyramine receptor (TyrR) [1]) | Affects Intracellular Ca^2+ (Yes or No) (Tyramine receptor (TyrR) [2]) | Tyramine Receptor Binding Affinity (High or Low) (Tyramine receptor (TyrR) [3]) | further results
COc1cc(C=O)ccc1O [vanillin] | No | – | – | –
C=CCc1ccc(O)c(OC)c1 [Eugenol] | No | Yes | Low | –
CC(C)=CCC/C(C)=C/CO [geraniol] | Yes | Yes | High | –
Cc1ccc(C(C)C)cc1O [Rx4, carvacrol] | – | – | – | Egg Count (X ± SD), During Treatment 1st Day (H. nana; [4]): 5 ± 0.6; Egg Count (X ± SD), During Treatment 2nd Day (H. nana; [4]): 2.2 ± 3.4; Egg Count (X ± SD), During Treatment 3rd Day (H. nana; [4]): 1 ± 1.9; Egg Count (X ± SD), During Treatment 4th Day (H. nana; [4]): 0.9 ± 1.2; Egg Count (X ± SD), During Treatment 5th Day (H. nana; [4]): 2 ± 2; Egg Count (X ± SD), Post treatment 2 Days after last dose (H. nana; [4]): 1.3 ± 1.1; Cure rate (%) (H. nana; [5]): 28.6%; Positiveity rate (%) (H. nana; [5]): 71.4%; Egg Count (X ± SD), Pre Treatment (Base Line Data) (H. nana): 3 ± 1
CC1=CCC2CC1C2(C)C (stereo not drawn) [α-pinene] | No | No | Low | Cure rate (%) (H. nana; [6]): 25.0%; Cure rate (%) (H. nana; [7]): 25.0%
Cc1ccc(C(C)C)c(O)c1 [Rx11, thymol] | No | Yes | High | Cure rate (%) (H. nana; [6]): 33.3%; Cure rate (%) (H. nana; [7]): 33.3%
C/C=C/c1ccc(OC)cc1 [anethole] | Yes | Yes | Low | –
CCCCCCCCCCCCOS(=O)(=O)[O-].[Na+] [sodium lauryl sulfate] | No | No | Low | –
CC12CCC(CC1)C(C)(C)O2 [cineol] | Yes | Yes | Low | –
CC12CCC(CC1)C(C)(C)O2 [Rx6, cineol] | – | – | – | Egg Count (X ± SD), During Treatment 1st Day (H. nana; [4]): 5 ± 9.5; Egg Count (X ± SD), During Treatment 2nd Day (H. nana; [4]): 3.8 ± 14.3; Egg Count (X ± SD), During Treatment 3rd Day (H. nana; [4]): 1 ± 1.2; Egg Count (X ± SD), During Treatment 4th Day (H. nana; [4]): 1.8 ± 1.7; Egg Count (X ± SD), During Treatment 5th Day (H. nana; [4]): 1.6 ± 1.5; Egg Count (X ± SD), Post treatment 2 Days after last dose (H. nana; [4]): 2.5 ± 3.5; Cure rate (%) (H. nana; [5]): 54.5%; Positiveity rate (%) (H. nana; [5]): 45.5%; Egg Count (X ± SD), Pre Treatment (Base Line Data) (H. nana): 3.1 ± 1.2
Cc1ccc(C(C)C)cc1 [Rx10, p-cymene] | Yes | Yes | Low | tyramine receptor binding affinity (Tyramine receptor (TyrR) [3]): low (a low receptor binding affinity is found when the equilibrium dissociation constant (Kd) is greater than about 100 nM); Cure rate (%) (H. nana; [6]): 13.3%; Cure rate (%) (H. nana; [7]): 13.3%
CCC(=O)OCCc1ccccc1 [phenethyl proprionate] | Yes | No | Low | –
OCc1ccccc1 [benzyl alcohol] | Yes | No | Low | –
CC(C)=CCC/C(C)=C/CO [Rx5, geraniol] | – | – | – | Egg Count (X ± SD), During Treatment 1st Day (H. nana; [4]): 14 ± 13.9; Egg Count (X ± SD), During Treatment 2nd Day (H. nana; [4]): 1.4 ± 2.1; Egg Count (X ± SD), During Treatment 3rd Day (H. nana; [4]): 4.1 ± 9.6; Egg Count (X ± SD), During Treatment 4th Day (H. nana; [4]): 2.6 ± 7.4; Egg Count (X ± SD), During Treatment 5th Day (H. nana; [4]): 2.3 ± 3.6; Egg Count (X ± SD), Post treatment 2 Days after last dose (H. nana; [4]): 0.5 ± 0.9; Cure rate (%) (H. nana; [5]): 66.6%; Positiveity rate (%) (H. nana; [5]): 33.4%; cure rate (H. nana; H. nana infected mice, 400 mg/kg body weight orally daily for 5 successive days, 3rd day after last dose): 66.6%; Egg Count (X ± SD), Pre Treatment (Base Line Data) (H. nana): 3 ± 1; Worms absent or dead in mice (H. nana; treated for 5 consecutive days, 400 mg/kg, post treatment dissection): 67%
CCC(C)(O)CCCC(C)C (stereo not shown) [tetrahydrolinalool] | Yes | Yes | High | –
C=C(C)[C@H]1CC=C(C)CC1 [d-limonene] | – | Yes | – | –
OCC=Cc1ccccc1 [cinnamyl alcohol] | No | Yes | Low | –
C=CC(C)(O)CCC=C(C)C (stereo not shown) [linalool] | No | Yes | High | Cure rate (%) (H. nana; [6]): 23.3%; Cure rate (%) (H. nana; [7]): 23.3%
